The compounds below were run against ALK2 (Homo sapiens (Human), UniProt Q04771) (assay: ALK2 inhibition, LanthaScreen Eu Kinase Binding Assay (ThermoFisher Scientific / Life Technologies)). Settings: read-out: Measured Ki (IC50) Value for Compounds: IC50.
Chain of ALK2 (Q04771 21-509): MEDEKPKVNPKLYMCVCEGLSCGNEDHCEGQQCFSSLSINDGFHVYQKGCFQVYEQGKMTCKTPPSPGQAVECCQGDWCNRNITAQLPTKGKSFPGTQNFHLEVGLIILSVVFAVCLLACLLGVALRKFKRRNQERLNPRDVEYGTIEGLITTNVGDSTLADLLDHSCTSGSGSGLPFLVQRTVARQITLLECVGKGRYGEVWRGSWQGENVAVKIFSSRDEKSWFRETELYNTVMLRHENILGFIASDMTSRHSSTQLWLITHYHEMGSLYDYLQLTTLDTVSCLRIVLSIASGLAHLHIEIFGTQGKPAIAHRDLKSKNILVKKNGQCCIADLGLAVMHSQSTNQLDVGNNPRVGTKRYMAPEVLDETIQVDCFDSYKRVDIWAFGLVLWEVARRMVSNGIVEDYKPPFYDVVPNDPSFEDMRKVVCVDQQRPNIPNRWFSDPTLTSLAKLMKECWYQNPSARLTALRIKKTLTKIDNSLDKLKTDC
Protocol: Biochemical assays to measure the inhibitory effects of the compounds were performed by ThermoFisher Scientific (Life Technologies). ALK2 inhibition was tested using LanthaScreen™ Eu Kinase Binding Assay screening protocol.
In the case of COc1cc(-n2cnc(Nc3nc(N4CCC[C@H]4CO)nc4cc[nH]c34)c2)cc(OC)c1OC [Compound 160d, (S)-(1-(4-((1-(3,4,5-trimethoxyphenyl)-1H-imidazol-4-yl)amino)-5H-pyrrolo[3,2-d]pyrimidin-2-yl)pyrrolidin-2-yl)methanol], the IC50 is reported as < 100 nM.
Work on COc1cc(-n2cnc(Nc3nc(N4CCC[C@H]4C(N)=O)nc4cccnc34)c2)cc(OC)c1OC [Compound 161a, (S)-1-(4-((1-(3,4,5-trimethoxyphenyl)-1H-imidazol-4-yl)amino)pyrido[3,2-d]pyrimidin-2-yl)pyrrolidine-2-carboxamide] yielded an IC50 of 100 to 1000 nM.
COc1cc(-n2cnc(Nc3nc(N4CCC[C@H]4C(N)=O)nc4ccn(S(=O)(=O)c5ccc(C)cc5)c34)c2)cc(OC)c1OC [Compound 162a, (S)-1-(5-tosyl-4-((1-(3,4,5-trimethoxyphenyl)-1H-imidazol-4-yl)amino)-5H-pyrrolo[3,2-d]pyrimidin-2-yl)pyrrolidine-2-carboxamide] gave an IC50 of 100 to 1000 nM.
For COc1cc(-n2cnc(Nc3nc(N4CCC[C@H]4C(N)=O)nc4cc[nH]c34)c2)cc(OC)c1OC [Compound 162b, (S)-1-(4-((1-(3,4,5-trimethoxyphenyl)-1H-imidazol-4-yl)amino)-5H-pyrrolo[3,2-d]pyrimidin-2-yl)pyrrolidine-2-carboxamide], the IC50 was < 100 nM.
COc1cc(-n2cnc(Nc3nc(N4CCCC4)nc4c3ccn4S(=O)(=O)c3ccc(C)cc3)c2)cc(OC)c1OC [Compound 163a, 2-(pyrrolidin-1-yl)-7-tosyl-N-(1-(3,4,5-trimethoxyphenyl)-1H-imidazol-4-yl)-7H-pyrrolo[2,3-d]pyrimidin-4-amine] showed an IC50 of 100 to 1000 nM.
With COc1cc(-n2cnc(Nc3nc(N4CCC[C@H]4CO)nc4scnc34)c2)cc(OC)c1OC [Compound 164a, (S)-(1-(7-((1-(3,4,5-trimethoxyphenyl)-1H-imidazol-4-yl)amino)thiazolo[5,4-d]pyrimidin-5-yl)pyrrolidin-2-yl)methanol] the IC50 was < 100 nM.
COc1cc(-n2cnc(Nc3nc4c(c(N5CCC[C@H]5CO)n3)CCN(Cc3ccccc3)C4)c2)cc(OC)c1OC [Compound 165b, (S)-(1-(7-benzyl-2-((1-(3,4,5-trimethoxyphenyl)-1H-imidazol-4-yl)amino)-5,6,7,8-tetrahydropyrido[3,4-d]pyrimidin-4-yl)pyrrolidin-2-yl)methanol] was tested, and the IC50 was < 100 nM.
For COc1cc(-n2cnc(Nc3nc4c(c(N5CCC[C@H]5C(N)=O)n3)CCN(Cc3ccccc3)C4)c2)cc(OC)c1OC [Compound 166b, (S)-1-(7-benzyl-2-((1-(3,4,5-trimethoxyphenyl)-1H-imidazol-4-yl)amino)-5,6,7,8-tetrahydropyrido[3,4-d]pyrimidin-4-yl)pyrrolidine-2-carboxamide], the IC50 was < 100 nM.
In the case of COc1cc(-n2cnc(Nc3nc(N4CCC[C@H]4CO)nn4cccc34)c2)cc(C#N)c1OC [Compound 167f, (S)-5-(4-((2-(2-(hydroxymethyl)pyrrolidin-1-yl)pyrrolo[2,1-f][1,2,4]triazin-4-yl)amino)-1H-imidazol-1-yl)-2,3-dimethoxybenzonitrile], the IC50 is reported as > 1000 nM.
For COc1cc(-n2cnc(Nc3nc(N4CCCC4)c4cccn4n3)c2)cc(OC)c1OC [Compound 168b, 4-(pyrrolidin-1-yl)-N-(1-(3,4,5-trimethoxyphenyl)-1H-imidazol-4-yl)pyrrolo[2,1-f][1,2,4]triazin-2-amine], the IC50 was 100 to 1000 nM.
For COc1cc(-n2cnc(Nc3nc(N4CCC[C@H]4CO)nc4ncccc34)c2)cc(OC)c1OC [Compound 169c, (S)-(1-(4-((1-(3,4,5-trimethoxyphenyl)-1H-imidazol-4-yl)amino)pyrido[2,3-d]pyrimidin-2-yl)pyrrolidin-2-yl)methanol], the IC50 was < 100 nM.
With COc1cc(-n2cnc(Nc3nc(N4CCC[C@H]4C(N)=O)nc4ncccc34)c2)cc(OC)c1OC [Compound 170a, (S)-1-(4-((1-(3,4,5-trimethoxyphenyl)-1H-imidazol-4-yl)amino)pyrido[2,3-d]pyrimidin-2-yl)pyrrolidine-2-carboxamide] the IC50 was < 100 nM.
With COc1cc(-n2cnc(Nc3nc(N4CCC[C@H]4C(N)=O)nc4cc(OC(C)C)ccc34)c2)cc(OC)c1OC [Compound 171a, (S)-1-(7-isopropoxy-4-((1-(3,4,5-trimethoxyphenyl)-1H-imidazol-4-yl)amino)quinazolin-2-yl)pyrrolidine-2-carboxamide] the IC50 was < 100 nM.
With OC[C@@H]1CCCN1c1nc(Nc2cn(-c3ccccc3)cn2)nn2cccc12 [Compound 172a, (S)-(1-(2-((1-phenyl-1H-imidazol-4-yl)amino)pyrrolo[2,1-f][1,2,4]triazin-4-yl)pyrrolidin-2-yl)methanol] the IC50 was 100 to 1000 nM.
COc1cc(-n2cnc(Nc3nc(N4CCC[C@H]4C(N)=O)c4ccn(S(=O)(=O)c5ccc(C)cc5)c4n3)c2)cc(OC)c1OC [Compound 173b, (S)-1-(7-tosyl-2-((1-(3,4,5-trimethoxyphenyl)-1H-imidazol-4-yl)amino)-7H-pyrrolo[2,3-d]pyrimidin-4-yl)pyrrolidine-2-carboxamide] was tested, and the IC50 was > 1000 nM.
COc1cc(-n2cnc(Nc3nc(N4CCC[C@H]4C(N)=O)c4cc[nH]c4n3)c2)cc(OC)c1OC [Compound 173c, (S)-1-(2-((1-(3,4,5-trimethoxyphenyl)-1H-imidazol-4-yl)amino)-7H-pyrrolo[2,3-d]pyrimidin-4-yl)pyrrolidine-2-carboxamide] was tested, and the IC50 was < 100 nM.
In the case of COc1cc(-n2cnc(Nc3nc(N4CCC[C@H]4CO)c4cccnc4n3)c2)cc(OC)c1OC [Compound 174b, (S)-(1-(2-((1-(3,4,5-trimethoxyphenyl)-1H-imidazol-4-yl)amino)pyrido[2,3-d]pyrimidin-4-yl)pyrrolidin-2-yl)methanol], the IC50 is reported as < 100 nM.
In the case of COc1cc(-n2cnc(Nc3nc(N4CCC[C@H]4CO)c4ncccc4n3)c2)cc(OC)c1OC [Compound 175b, (S)-(1-(2-((1-(3,4,5-trimethoxyphenyl)-1H-imidazol-4-yl)amino)pyrido[3,2-d]pyrimidin-4-yl)pyrrolidin-2-yl)methanol], the IC50 is reported as < 100 nM.
COc1cc(-n2cnc(Nc3nc(N4CCC[C@@H]4C(N)=O)c4cccn4n3)c2)cc(OC)c1OC [Compound 176b, (R)-1-(2-((1-(3,4,5-trimethoxyphenyl)-1H-imidazol-4-yl)amino)pyrrolo[2,1-f][1,2,4]triazin-4-yl)pyrrolidine-2-carboxamide] was tested, and the IC50 was 100 to 1000 nM.
With COc1cc(-n2cnc(Nc3nc4c(c(N5CCC[C@H]5CO)n3)CN(Cc3ccccc3)CC4)c2)cc(OC)c1OC [Compound 177b, (S)-(1-(6-benzyl-2-((1-(3,4,5-trimethoxyphenyl)-1H-imidazol-4-yl)amino)-5,6,7,8-tetrahydropyrido[4,3-d]pyrimidin-4-yl)pyrrolidin-2-yl)methanol] the IC50 was < 100 nM.
Compound COc1cc(-n2cnc(Nc3ccc4ccccc4c3)c2)cc(OC)c1OC [Compound 178b, N-(naphthalen-2-yl)-1-(3,4,5-trimethoxyphenyl)-1H-imidazol-4-amine] has an IC50 of 100 to 1000 nM.
In the case of COc1cc(-n2cnc(Nc3ccc4ccccc4n3)c2)cc(OC)c1OC [Compound 179b, N-(1-(3,4,5-trimethoxyphenyl)-1H-imidazol-4-yl)quinolin-2-amine], the IC50 is reported as < 100 nM.
In the case of COc1cc(-n2cnc(Nc3nc(N4CCC[C@H]4CO)c4c(ccn4S(=O)(=O)c4ccc(C)cc4)n3)c2)cc(OC)c1OC [Compound 180b, (S)-(1-(5-tosyl-2-((1-(3,4,5-trimethoxyphenyl)-1H-imidazol-4-yl)amino)-5H-pyrrolo[3,2-d]pyrimidin-4-yl)pyrrolidin-2-yl)methanol], the IC50 is reported as < 100 nM.

Reference: patent US11661426B2, “Imidazole-containing inhibitors of ALK2 kinase” (BioCryst Pharmaceuticals, Inc., priority 2017, dated 2023)
